For orientation: IC50 means the point on the concentration scale where inhibition reaches its midpoint. A lower IC50 goes with greater potency in that assay.

For assay [1], the system named is transgenic Drosophila expressing LRRK2-G2019S in dopamine (DA) neurons. Briefly: Drosophila model survival rate. Particulars: significance compared to DMSO negative control. It is filed as in vivo. The source says: (§1) Drosophila model was used to evaluate Examples in vivo. The GAL4/UAS system developed by Andrea Brand and Norbert Perrimon in 1993 [45] was used to generate transgenic Drosophila expressing LRRK2-G2019S in dopamine (DA) neurons. The system has two parts: the GAL4 gene, encoding the yeast transcription activator protein GAL4, and the UAS (Upstream Activation Sequence), an enhancer to which GAL4 specifically binds to activate gene transcription. This system takes advantage of the yeast GAL4 transcription factor, which binds specifically to the UAS.
To express LRRK2-G2019S in DA neurons, the UAS-Wild Type-LRRK2 and UAS-G2019S-LRRK2 transgenes were combined with the dopa decarboxylase (ddc)-GAL4 driver. The 10 μM GW5074 was used for the positive control. […]
Twenty newly enclosed female Drosophila were collected and placed in a food vial. The Drosophila were moved to fresh food vials every other day at which time deaths were scored.
Based on Drosophila′ survival curve, the 50% survival time parameter indicates the time at which half of the Drosophila remained alive and was used to compare the survival ratio between the different groups. The mean 50% survival times and the standard errors were calculated based on 4 separate experiments for each group. The data were analysed by GraphPad PRISM® 6.0 software.

The target in assay [2] is LRRK2 (phospho S935) in Drosophila brain lysates (Homo sapiens (Human), UniProt Q5S007, G2019S). Kind of assay: Drosophila model kinase assays at week 6. In kind it is in vivo. Particulars: ratio of phosphate LRRK2 protein to Flag protein, significance compared to DMSO negative control.
Protocol: The 10 μM GW5074 was used for the positive control. The negative control group was DMSO control (all compounds were dissolved in DMSO with 1:1000 dillution). The Drosophila were maintained at 25° C. on a 12 hour light-12 hour dark cycle. GW5074 was used as positive control [47].
The adult Drosophila heads were homogenized on ice, and the brain lysates were performed kinase reaction in kinase reaction buffer with ATP and DTT.
Then the lysates were electrophoresed through 12% SDS-PAGE gels and transferred to PVDF membranes (Millipore). The membranes were blocked in TBST with 5% skimmed milk for 1 hour at room temperature and then incubated in anti-LRRK2 pSer935 antibody (Abcam, ab133450) and anti-Flag antibody overnight at 4° C.
The proteins were detected with HRP-conjugated secondary antibodies and ECL detection reagents. The optical density of immunoblotting was analysed by Image J software and the ratio of phosphate LRRK2 protein compare to Flag protein were calculated and the data were analysed by GraphPad PRISM® 6.0 software.
In assay [3] the test system is transgenic Drosophila expressing LRRK2-G2019S in dopamine (DA) neurons. Kind of assay: Drosophila model climbing assay (negative geotaxis). It is filed as in vivo. The settings on record: significance compared to DMSO negative control.
Source text: as §1
To express LRRK2-G2019S in DA neurons, the UAS-Wild Type-LRRK2 and UAS-G2019S-LRRK2 transgenes were combined with the dopa decarboxylase (ddc)-GAL4 driver. The 10 μM GW5074 was used for the positive control. The negative control group was DMSO control (all compounds were dissolved in DMSO with 1:1000 dillution). The Drosophila were maintained at 25° C. on a 12 hour light-12 hour dark cycle. GW5074 was used as positive control.
The negative geotaxis assay was used to analyse the locomotors ability of the Drosophila. Twenty Drosophila from each vial and 4 vials for each group were performed the climbing assay weekly.
The tested Drosophila were transferred into a vertical plastic tube (15 cm tall, 1.5 cm in diameter). After 30 min of rest at room temperature, the Drosophila were gently tapped to the bottom of the tube, the numbers of Drosophila that could climb to or above the test line within 10 seconds were counted and the percent were calculated.
The climbing abilities were analysed based on three separate experiments for each vial and the data were analysed by GraphPad PRISM® 6.0 software.

The next assay has as its target JAK2 (Homo sapiens (Human), UniProt O60674). Kind of assay: LANCE Kinase Assay (JAK2_IC50 selectivity assay). It is filed as biochemical. An excerpt: In LANCE® Kinase Assay (JAK2_IC50 selectivity assay): JAK2 (Invitrogen, Cat. No PV4288), ATP (Sigma, Cat. No. A7699-1G), DMSO (Sigma, Cat. No. D2650), DTT (Sigma, Cat. No. 43815), LANCE Ultra ULight™-JAK-1 peptide (Perkin Elmer, Cat. No. TRF0121), LANCE Eu-W1024 Anti-phosphotyrosine (PT66) (Perkin Elmer, Cat. No. AD0069), LANCE™ Detection Buffer (Perkin Elmer, Cat. No. CR97-100), Tofacitinib (PharmaBlock Sciences(Nanjing), Inc, Cat. No. PBN2011586-01); Equipments: Envision (Perkin Elmer), Bravo (Agilent); Consumables: 384 well Intermediate plate (Greiner, Cat. No. 781280), 384 well assay plate (Perkin Elmer, Cat. No. 6007299),
The assay involves two steps, the enzymatic step and the detection step with HTRF reagents. Step 1: During the enzymatic step the substrate-biotin is incubated with the kinase of interest. ATP is added to start the reaction. Step 2: The detection reagent catches the phosphorylated substrate and the resulting TR-FRET is proportional to the phosphorylation level.
Compound Preparation: Dissolve the test compounds into 30 mM DMSO solution and put them in nitrogen hood at room temperature for long term storage; Dilute the 30 mM compound in DMSO with 3-fold factor, total 11 concentrations; Aspirate 1 μl compound and then dilute them in 25 folds with kinase buffer. Mix well and balance 30 minutes at room temperature.
Kinase Reaction: Transfer 2.5 μl compounds in kinase buffer (4×) into assay plate by Agilent Bravo. Spin the plate; Transfer 5 μl enzyme mixture into the assay plate by using Eppendorf electronic multi-channel pipette. Spin the plate; Incubate the assay plate for 20 minutes at room temperature (23° C.); Add 2.5 μl kinase buffer with ATP into the assay plate by using Multidrop. Spin and seal the plate; Incubate the assay plate for 90 minutes at room temperature (23° C.).
Stop Reaction: Transfer 10 μl detection reagent (2 nM LANCE Eu-W1024 Anti-phosphotyrosine) into the assay plate by using Eppendorf electronic multi-channel pipette. Spin and seal the plate; Incubate the assay plate at room temperature (23° C.) for 60 minutes.
Detection and Read: The excitation wavelength is 340 nm, the primary emission wavelength is 615 nm and the secondary emission wavelength is 665 nm (for Cryptate and Ulight, respectively). Read the plate with EnVision to get the readout of both wavelengths; Calculate the ratio of 665 nm/615 nm.
(§2) IC50 estimates were obtained using the software XLfit (IDBS Inc.).
(In general: TR-FRET usually uses a lanthanide donor and a delayed reading to cut background.)

A further assay deals with LRRK2 G2019S (Homo sapiens (Human), UniProt Q5S007, G2019S). Kind of assay: Adapta Kinase Assay (LRRK2_IC50 assay). It is filed as biochemical. Particulars: inhibition of LRRK2 G2019S. The procedure: In Adapta™ Kinase Assay (LRRK2_IC50 assay): the Kinase Reaction Buffer contained 5× Kinase Buffer S (Life Technologies, PV5213) and 2 mM DTT (Life Technologies, P2325).
The Adapta® universal kinase assay is a homogenous, fluorescent based immunoassay for the detection of ADP. In contrast to ATP depletion assays, the Adapta® assay is extremely sensitive to ADP formation such that a majority of the signal change occurs in the first 10-20% conversion of ATP to ADP. This makes the Adapta® universal kinase assay ideally suited for use with low activity kinases.
Prepare a 1× solution of kinase reaction buffer from the 5× Kinase Buffer S stock (listed above) by adding 2 ml of 5× stock to 8 ml of H2O to make 10 ml of 1× kinase reaction buffer. To this, add 20 μl of 1 M DTT.
Kinase reactions are performed in a 10 μl volume in low-volume 384-well plates. […] Other non—treated assay plates, while not tested, may also be suitable. The concentration of substrate in the assay is 100 μM, and the 1× kinase reaction buffer consists of 50 mM Tris-HCl pH8.5, 10 mM MgCl2, 1 mM EGTA, 0.01% Brij-35, and 2 mM DTT, plus any additional additives that may be required for a specific kinase. […] The plate is allowed to equilibrate at room temperature for at least 30 minutes before being read on a plate reader configured for Adapta™ TR-FRET.
The data presented in this document were generated using a BMG LABTECH PHERAstar plate reader using the appropriate filters and instrument settings for Adapta™. The Test Compounds are screened in 1% DMSO (final) in the well. For 8 point titrations, 5-fold serial dilutions are conducted from the starting concentration.
as §2

LRRK2 G2019S, sequence (Q5S007 970-2527 G2019S): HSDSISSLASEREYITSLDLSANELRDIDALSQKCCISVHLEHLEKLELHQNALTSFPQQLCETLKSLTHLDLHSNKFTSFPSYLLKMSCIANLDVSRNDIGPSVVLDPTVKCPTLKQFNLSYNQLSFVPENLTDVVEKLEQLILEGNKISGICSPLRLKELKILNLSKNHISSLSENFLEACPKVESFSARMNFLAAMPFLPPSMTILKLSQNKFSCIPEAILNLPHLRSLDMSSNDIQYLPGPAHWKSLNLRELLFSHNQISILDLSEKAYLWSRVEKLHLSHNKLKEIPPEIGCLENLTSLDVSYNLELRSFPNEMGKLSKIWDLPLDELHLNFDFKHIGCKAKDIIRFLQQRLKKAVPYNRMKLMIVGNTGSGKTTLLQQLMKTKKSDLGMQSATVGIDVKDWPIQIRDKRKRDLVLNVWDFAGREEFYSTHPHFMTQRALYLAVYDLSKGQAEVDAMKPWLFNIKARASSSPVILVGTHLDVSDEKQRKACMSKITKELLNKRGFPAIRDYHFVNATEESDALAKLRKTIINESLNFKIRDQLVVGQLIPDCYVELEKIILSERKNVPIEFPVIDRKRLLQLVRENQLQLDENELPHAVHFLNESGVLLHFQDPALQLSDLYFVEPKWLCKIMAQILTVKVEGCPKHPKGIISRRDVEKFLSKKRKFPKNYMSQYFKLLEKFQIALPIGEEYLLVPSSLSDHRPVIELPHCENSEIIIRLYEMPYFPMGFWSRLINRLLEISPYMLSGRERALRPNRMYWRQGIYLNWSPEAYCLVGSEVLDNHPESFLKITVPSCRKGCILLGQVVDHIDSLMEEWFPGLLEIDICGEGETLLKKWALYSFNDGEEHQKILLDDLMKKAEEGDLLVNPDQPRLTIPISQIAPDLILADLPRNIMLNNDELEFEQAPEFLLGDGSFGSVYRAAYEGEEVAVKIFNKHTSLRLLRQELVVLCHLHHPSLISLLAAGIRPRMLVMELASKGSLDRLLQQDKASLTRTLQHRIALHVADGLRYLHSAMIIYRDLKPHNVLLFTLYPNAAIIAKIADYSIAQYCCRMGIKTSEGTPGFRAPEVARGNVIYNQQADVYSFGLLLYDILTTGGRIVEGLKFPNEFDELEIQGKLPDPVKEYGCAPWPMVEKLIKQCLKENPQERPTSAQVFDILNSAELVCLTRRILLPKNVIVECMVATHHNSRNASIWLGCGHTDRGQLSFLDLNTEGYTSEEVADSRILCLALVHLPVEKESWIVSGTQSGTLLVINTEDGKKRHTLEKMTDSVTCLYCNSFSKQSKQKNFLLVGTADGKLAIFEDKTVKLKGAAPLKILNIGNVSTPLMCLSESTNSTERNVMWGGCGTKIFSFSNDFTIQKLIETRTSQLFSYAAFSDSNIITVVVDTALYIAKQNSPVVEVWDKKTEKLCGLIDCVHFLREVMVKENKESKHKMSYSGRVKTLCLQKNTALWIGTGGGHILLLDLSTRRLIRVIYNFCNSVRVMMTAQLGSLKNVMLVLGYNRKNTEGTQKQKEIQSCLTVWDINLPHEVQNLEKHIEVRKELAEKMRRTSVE
JAK2, sequence (O60674 whole entry): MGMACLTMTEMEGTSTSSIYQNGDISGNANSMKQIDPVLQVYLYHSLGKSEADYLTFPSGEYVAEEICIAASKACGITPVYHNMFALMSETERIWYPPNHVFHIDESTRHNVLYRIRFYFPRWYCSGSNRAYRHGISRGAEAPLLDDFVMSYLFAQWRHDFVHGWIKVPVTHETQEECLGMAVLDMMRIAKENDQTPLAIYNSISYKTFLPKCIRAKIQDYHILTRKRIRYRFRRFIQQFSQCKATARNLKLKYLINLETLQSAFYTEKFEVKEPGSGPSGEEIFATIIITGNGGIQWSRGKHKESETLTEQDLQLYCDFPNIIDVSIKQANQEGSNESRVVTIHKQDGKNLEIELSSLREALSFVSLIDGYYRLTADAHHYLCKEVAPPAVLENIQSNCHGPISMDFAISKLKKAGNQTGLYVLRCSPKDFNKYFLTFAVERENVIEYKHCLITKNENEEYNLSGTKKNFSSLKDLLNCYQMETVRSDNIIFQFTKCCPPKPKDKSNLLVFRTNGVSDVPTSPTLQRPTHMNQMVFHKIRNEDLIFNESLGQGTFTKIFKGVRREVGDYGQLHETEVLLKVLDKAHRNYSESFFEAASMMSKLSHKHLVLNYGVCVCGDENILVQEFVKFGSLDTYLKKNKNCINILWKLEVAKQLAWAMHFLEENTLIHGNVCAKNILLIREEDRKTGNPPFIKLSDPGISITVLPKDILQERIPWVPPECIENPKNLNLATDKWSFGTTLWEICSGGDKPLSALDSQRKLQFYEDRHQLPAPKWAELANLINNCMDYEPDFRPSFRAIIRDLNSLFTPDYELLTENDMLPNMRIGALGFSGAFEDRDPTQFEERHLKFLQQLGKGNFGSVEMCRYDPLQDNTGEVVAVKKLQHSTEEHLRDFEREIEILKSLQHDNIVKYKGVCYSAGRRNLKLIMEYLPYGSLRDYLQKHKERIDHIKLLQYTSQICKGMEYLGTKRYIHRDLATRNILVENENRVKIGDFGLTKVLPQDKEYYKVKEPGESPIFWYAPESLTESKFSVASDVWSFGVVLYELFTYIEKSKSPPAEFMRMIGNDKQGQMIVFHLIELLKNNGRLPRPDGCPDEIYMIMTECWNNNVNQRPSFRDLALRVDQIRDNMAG

As to `c1ccc2c(c1)CN(C1CCOCC1)c1nccc3[nH]nc-2c13` [Example 58], the “Survival Rate” value in assay [1] is “** (P < 0.01, compared to DMSO negative control)”. For the same compound, the “Kinase Assays” value in assay [2] is listed as “* (P < 0.05, compared to DMSO negative control)”. For the same compound, the “Climbing Assay 3 weeks” value in assay [3] (3 weeks) was “* (P < 0.05, compared to DMSO negative control)”. In assay [3] (4 weeks), the “Climbing Assay 4 weeks” value is “* (P < 0.05, compared to DMSO negative control)”. Besides, the “Climbing Assay 5 weeks” value in assay [3] (5 weeks) is “** (P < 0.01, compared to DMSO negative control)”. The “Climbing Assay 6 weeks” value in assay [3] (6 weeks) is recorded as “** (P < 0.01, compared to DMSO negative control)”.

For the compound `CCn1cc2c(n1)CN(C1CCN(C(C)C)CC1)c1nccc3[nH]nc-2c13` [Example 86, 2-ethyl-9-(1-isopropylpiperidin-4-yl)-2,5,9,10-tetrahydro-1,2,4,5,8,9-hexaazabenzo[cd]cyclopenta[h]azulene], the IC50 on JAK2 came out at 3000 nM; on LRRK2 G2019S, 29 nM.

`CC(C)N1CCC(N2Cc3nn(C(C)C)cc3-c3n[nH]c4ccnc2c34)CC1` [Example 88, 2-isopropyl-9-(1-isopropylpiperidin-4-yl)-2,5,9,10-tetrahydro-1,2,4,5,8,9-hexaazabenzo[cd]cyclopenta[h]azulene]: the IC50 turned out to be 5400 nM at JAK2 and 31 nM on LRRK2 G2019S.

With `CN1CCN(C2CCOCC2)c2nccc3[nH]nc1c23` [Example 93, 9-methyl-6-(tetrahydro-2H-pyran-4-yl)-6,7,8,9-tetrahydro-2H-1,2,5,6,9-pentaazabenzo[cd]azulene], the IC50 at JAK2 is above 30000 nM; against LRRK2 G2019S, 170 nM.
